Experimental data from patent US7259146B2, “Neuroprotective peptides” (Ortho-McNeil Pharmaceutical, Inc., priority 2000, dated 2007).
Entries after “also recorded” stand apart in the source; their conditions may differ.

Columns and labels:
[1] = test system: PC-12 cells; experiment: Glutamate toxicity in PC-12 cells (trypan blue exclusion); type: cell-based, rat; conditions: for protection against glutamate-induced cell death (in words): pre-treatment 24 hr, 200 μM glutamate
Procedure: PC-12 cells (from a rat Pheochromocytoma) were cultured on poly-D-Lysine coated tissue culture plastic in DMEM containing 10% FBS and 5% Horse serum. To induce the neuronal phenotype in PC-12 cells, serum was removed and the cells were treated with NGF (50 ng/ml). Cells were grown for 7 days in the presence of the NGF then used for experiments. PC-12 cells were cultured as described above. 24 hr prior to insult, cells were treated with rhEPO at concentrations ranging from 1 pm to 1 nm. On the day of the experiment, cells were exposed to 200 μM glutamate for 30 min. Cells were then washed 2 times with fresh media to remove the glutamate and cultured in fresh media containing NGF but no EPO. After 24 hr cells were assayed for viability using a trypan blue exclusion assay. […] Cells were then washed gently with PBS, then fixed with 10% formalin. Cell viability was determined by counting the total number of cells vs. the number of trypan blue positive (dead) cells.

[2] = Plasma determinations (EPO ELISA) in ischemia studies; type: in vivo, rat
Source text: Plasma Determinations: Blood samples were collected from each rat via the orbital sinus at the time of sacrifice. Plasma was separated out, frozen and analyzed by EPO ELISA for determination of plasma concentration (U/ml).

[3] = test system: rat cerebral cortical neurons; experiment: Glutamate toxicity assay in primary cortical cultures; type: cell-based
Source text: (§1) Dissociated hippocampal and cortical cell cultures were established from embryonic day 18 rat fetuses as previously described (Mattson et al., 1994). Briefly, fetuses were removed via cesarean section from pregnant moms (Sprague-Dawley) anesthetized with halothane according to the AVMA Panel on Euthanasia. Pups were decapitated and the brains were removed and placed in HEPES-buffered Hank's Balanced Salt solution (HBSS; Gibco). The hippocampi and cortices were dissected out and pooled according to tissue-type. Tissue was trypsinized for 15 min (1 mg/ml trypsin-HBSS; Worthington), rinsed with fresh HBSS, incubated in trypsin inhibitor (1 mg/ml; Sigma) for 5 min, rinsed again with fresh HBSS and then triturated in 1 ml fresh HBSS with a fire-polished glass pipette. Dissociated cells were seeded at 30,000 cells/well onto poly-D-lysine coated 96-well plates (Collaborative BioScience). Each well contained 100 μl of Eagle's Minimal Essential Media (MEM; Gibco) supplemented with 26 mM NaHCO3 (Sigma), 56 mM glucose (Sigma), 15 mM KCl (Sigma), 1 mM sodium pyruvate (Sigma), 1.1 mM L-glutamine (Sigma), 10% (v/v) heat-inactivated fetal bovine serum (Hyclone), and 0.001% gentamicin sulfate (Sigma) (pH 7.4). Cells were allowed to attach for 24 h in a humidified 37° C. 5% CO2 incubator before experimental treatment. The culture media was aspirated and exchanged with fresh media every three days.
Cortical cells were seeded at 200,000 cells/dish onto polyethylenimine-coated 35 mm culture dishes. Each dish contained 1.5 ml MEM supplemented as described above. On the seventh day in culture, four fields per pre-marked dish were visualized with a Nikon Diaphot inverted microscope (10×magnification) and photographed prior to experimental treatment. […] Cell survival was measured by counting viable cells in each field pre- and post-experimental treatment. […] Data were expressed as percent of control (vehicle; mean±SD).

[4] = test system: rat cerebral cortical cultures; experiment: Neurite outgrowth assay (MAP2-FITC immunofluorescence), cortical cultures; type: cell-based
Source text: as §1
(§2) Twenty-four hours after plating, cultures were treated with vehicle (PBS+0.1% BSA), 100 ng of various growth factors (brain derived neurotrophic factor (BDNF; Promega), glial-derived neurotrophic factor (GDNF; Promega), nerve growth factor (NGF; Boehringer Mannheim), basic fibroblast growth factor (bFGF; Boehringer Mannheim), insulin-like growth factor-1 (IGF-1; Boehringer Mannheim), neurotrophin-3 (NT3; Calbiochem), neurotrophin-4 (NT4; Calbiochem), ciliary neurotrophic factor (CNTF; Calbiochem), epidermal growth factor (EGF; Calbiochem), vascular endothelial growth factor (VEGF; Calbiochem)), or rhEPO (prepared same as above; 10 fM-10 nM)). Each treatment condition was run in quadruplicate or octuplicate. On the third day in culture, the media was aspirated off and replaced with fresh media and test compound. At one week in culture, the cells were fixed with 10% phosphate-buffered formalin for 15 min, then rinsed with DPBS (Sigma) and placed in blocking serum for 30 min (horse serum; 1:50 dilution in DPBS; Vector Labs). Cultures were rinsed again with DPBS and then incubated in primary antibody for 2 hr (microtubule-associated protein-2 (MAP-2) is a selective marker for dendritic processes; anti-mouse monoclonal (Chemicon); 1:1000 dilution of MAP-2 in antibody diluent (Zymed)). Negative control wells were incubated in antibody diluent alone. Background signal was determined by blank wells (cell-free) incubated with or without antibody. Cultures were rinsed again with DPBS and then placed in fluorescein for 1 hr (FITC; anti-mouse IgG; rat adsorbed; 1:50 dilution in DPBS; Vector Labs). Cultures were rinsed a final time with DPBS and then the plates were read on a Cytofluor 4000 fluorescence plate reader. Neurite outgrowth was expressed as percent change from control (vehicle; mean fluorescence±SD).
(§3) Dissociated hippocampal and cortical cell cultures were established from embryonic day 18 rat fetuses as previously described (Mattson et al., 1994). Briefly, fetuses were removed via cesarean section from pregnant moms (Sprague-Dawley) anesthetized with halothane according to the AVMA Panel on Euthanasia. Pups were decapitated and the brains were removed and placed in HEPES-buffered Hank's Balanced Salt solution (HBSS; Gibco). The hippocampi and cortices were dissected out and pooled according to tissue-type. […]

[5] = test system: rat hippocampal cultures; experiment: Neurite outgrowth assay (MAP2-FITC immunofluorescence), hippocampal cultures; type: cell-based
Source text: as §1, §2, §3

[6] = cited from earlier work

## EPO: purified, recombinant human EPO (rhEPO), formulated and distributed under the trademarks EPREX, ERYPO or PROCRIT
[1]; 1 to 10 pm given 24 hours prior to glutamate (200 um), p<0.001
  cell survival, Trypan Blue exclusion assay: significantly increased cell survival
[1]; glutamate toxicity
  peak concentration for the neuroprotective effect: 10 pm
[1]; glutamate toxicity, 1 nm
  neuroprotective effect at 1 nm: no significant effect
[1]; glutamate toxicity, protection decreasing above 10 pm
  dose response curve for the neuroprotective effect: bi-phasic; also recorded: decreased at higher doses
[1]
  protection against glutamate-induced cell death (in words): significant decrease in cell death
[1]; listed as rhEPO
  protection against glutamate-induced cell death (in words): protects rat PC12 cells against glutamate-induced cell death
[2]; Study I, continuous infusion
  plasma concentrations (terminal): correlated with the protective effect
[2]; Study II, single iv bolus 1000, 2500 or 5000 U/kg
  plasma concentrations (terminal): low
[3]; cell survival greater than or equal to vehicle (no glutamate) treated cultures
  concentration of greatest neuroprotective effect: greatest effects observed at pM concentrations
[3]; pretreatment 24 h prior to 100 μM glutamate
  neuronal survival / protection against glutamate toxicity (in words): significant increase in neuronal survival; also recorded: protects rat cerebral cortical neurons against glutamate toxicity
[3]; pretreatment 24 h prior to 100 μM glutamate, counted 24 h post-glutamate
  cell survival, maximal increase over parallel cultures treated with glutamate alone: approximately 200%
[4]
  neurite outgrowth (in words): significant increase in neurite outgrowth; also recorded: promotes neurite outgrowth
[4]; concentration dependent
  concentration of maximal neurite outgrowth promoting activity: maximal activity observed at pM levels
[4]; growth factors 100 ng
  ability to increase neurite outgrowth compared to known growth factors: greater than or equal to that of known growth factors; also recorded: superior in inducing neurite outgrowth relative to the majority of known growth factors
[4]; rhEPO 10 fM-10 nM, one week in culture
  neurite outgrowth response over control: 15–29%
[5]; comparison of hippocampal and cortical cultures
  overall neurite outgrowth response, hippocampal versus cortical cultures: larger outgrowth response in the hippocampal cultures
[5]; hippocampal cultures
  neurite outgrowth (in words): significant increase in neurite outgrowth; also recorded: promotes neurite outgrowth
[5]; hippocampal cultures, concentration dependent
  concentration of maximal neurite outgrowth promoting activity: maximal activity observed at pM levels
[5]; hippocampal cultures, rhEPO 10 fM-10 nM, one week in culture
  neurite outgrowth response over control: 12–44%
[5]; hippocampal cultures, growth factors 100 ng
  outgrowth promoting activity compared to known growth factors: superior to several growth factors including BDNF, NGF and VEGF
[6]; patients
  tolerability in studies conducted to date: well tolerated
[6]; subjects treated for up to 2 years
  antibody titers against Epoetin alfa: No antibody titers
